The source of these data is ChEMBL document CHEMBL1151203, “Phelligridins C-F: cytotoxic pyrano[4,3-c][2]benzopyran-1,6-dione and furo[3,2-c]pyran-4-one derivatives from the fungus Phellinus igniarius” (J Nat Prod, 2004).

By IC50 is commonly meant the point on the concentration scale where inhibition reaches its midpoint. A higher IC50 goes with weaker potency in that assay.

Molecules are shown by their SMILES. A value given as a limit tells only on which side of the number the result lay.

Holding throughout (type): functional, cell-based
One test relates to KETR3. Kind of test: Cytotoxicity against human Ketr3 cells after 96 hrs by MTT assay. The note with it: KETR3, 96 h. On the technique in general: Tetrazolium assays rely on reduction of a dye to a coloured formazan, in cell work by metabolically active cells.
Another test has as its system A549. Kind of test: Cytotoxicity against human A549 cells after 96 hrs by MTT assay. The note with it: A549, 96 h.
A further test has as its system BGC-823. Kind of test: Cytotoxicity against human BGC823 cells after 96 hrs by MTT assay. The conditions noted are these: BGC-823, 96 h.
For the next test, the system named is MCF7. Kind of test: Cytotoxicity against human MCF7 cells after 96 hrs by MTT assay. The note with it: MCF7, 96 h.
The next test deals with Bel-7402. Kind of test: Cytotoxicity against human Bel7402 cells after 96 hrs by MTT assay. The conditions noted are these: Bel-7402, 96 h.
The test system of a further test is HCT-8. Kind of test: Cytotoxicity against human HCT8 cells after 96 hrs by MTT assay. The note with it: HCT-8, 96 h.

For `CC(=O)/C=C/c1ccc(O)c(O)c1`, the IC50 in the test with KETR3 was 0.245 µM; in the test on A549, more than 280 µM; in the test with BGC-823 it was 243 µM; with MCF7 it was 141 µM; in the test with Bel-7402, 153 µM; with HCT-8 it was 227 µM.
Turning to `CC(=O)/C=C(O)/C=C/c1ccc(O)c(O)c1` [HISPOLON], the IC50 was found to be 0.206 µM with KETR3; 183 µM with A549; 205 µM in the test on BGC-823; 25 µM with MCF7; 38 µM in the test on Bel-7402; 199 µM with HCT-8.
On to `CC1=CC(=O)C2(O1)c1c(cc(/C=C/c3ccc(O)c(O)c3)oc1=O)OC2c1ccc(O)c(O)c1` (stereo not given) [INOSCAVIN A], for which the IC50 in the test on KETR3 is more than 0.108 µM; with A549, more than 108 µM; in the test with BGC-823, more than 108 µM; in the test on MCF7, more than 108 µM; in the test on Bel-7402, 88 µM; with HCT-8 it was more than 108 µM.
For `Cc1cc2oc(=O)c3cc(O)c(O)cc3c2c(=O)o1` [PHELLIGRIDIN A], the IC50 in the test on KETR3 is more than 0.192 µM; in the test on A549, more than 192 µM; in the test with BGC-823, 181 µM; in the test on MCF7, 109 µM; with Bel-7402, 110 µM; in the test with HCT-8, more than 192 µM.
As to `COC(=O)c1c(O)cc(/C=C/c2ccc(O)c(O)c2)oc1=O` [PHELLIGRIDIN B], the IC50 in the test with KETR3 was 0.144 µM; in the test with A549, more than 164 µM; with BGC-823, 146 µM; in the test with MCF7, 143 µM; in the test on Bel-7402, 50 µM; with HCT-8, 139 µM.
Regarding `O=c1oc2cc(/C=C/c3ccc(O)cc3)oc(=O)c2c2cc(O)c(O)cc12` [PHELLIGRIDIN C], the half-maximal inhibitory concentration (IC50) was 0.094 µM in the test with KETR3; 12 µM in the test on A549; more than 137 µM in the test on BGC-823; 72 µM in the test on MCF7; 10 µM in the test with Bel-7402; 126 µM with HCT-8.
On to `O=c1oc2cc(/C=C/c3ccc(O)c(O)c3)oc(=O)c2c2cc(O)c(O)cc12` [PHELLIGRIDIN D], for which the IC50 is 0.09 µM with KETR3; 16 µM with A549; more than 131 µM with BGC-823; 37 µM in the test on MCF7; 8 µM in the test on Bel-7402; 99 µM in the test on HCT-8.
For `CC1=CC(=O)C2(O1)C(c1cc3oc(=O)c4cc(O)c(O)cc4c3c(=O)o1)=Cc1cc(O)c(O)cc12` (stereo not given) [PHELLIGRIDIN E], the IC50 is more than 0.105 µM in the test with KETR3; 79 µM in the test with A549; 96 µM with BGC-823; 70 µM in the test with MCF7; 55 µM with Bel-7402; more than 105 µM in the test with HCT-8.
With `COC1(CC(C)=O)Oc2cc(/C=C/c3ccc(O)c(O)c3)oc(=O)c2/C1=C/c1ccc(O)c(O)c1` (stereo not given) [PHELLIGRIDIN F], the IC50 in the test on KETR3 was more than 0.104 µM; in the test with A549, 84 µM; in the test with BGC-823, 92 µM; in the test on MCF7, 85 µM; with Bel-7402, 46 µM; in the test with HCT-8, more than 104 µM.
Consider `CC[C@@]1(O)C(=O)OCc2c1cc1n(c2=O)Cc2cc3c(CN(C)C)c(O)ccc3nc2-1` [TOPOTECAN], for which the IC50 with KETR3 was determined as 0.0049 µM; with A549 it was 3.2 µM; in the test with BGC-823, 4.3 µM; in the test on MCF7 it was 1.8 µM; in the test on Bel-7402, 1.2 µM; in the test on HCT-8, 1.5 µM.
